Columns and labels:
Assay in all cases: relative viability (nuclei count vs DMSO), 5 days (fraction); higher = more cells survive
VE-821 + Phenformin = compound: CS(=O)(=O)c1ccc(-c2cnc(N)c(C(=O)Nc3ccccc3)n2)cc1 [VE-821] + N=C(N)NC(=N)NCCc1ccccc1 [Phenformin] (partner 250 µM)
Summary of the method: (§1)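 One day after seeding in 1536-well plates, lung cancer cell lines were dosed by pin tool. Dosing was either single-drug or a fixed anchor-drug dose plus five library-drug doses (not always all listed) in √10 steps. After 5 days, nuclei were stained in one fix-and-stain step and counted on 4× images, and relative viability is the nuclei count of treated wells over that of vehicle wells, given as the median of duplicate plates.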

Vismodegib + Lapatinib = compound: CS(=O)(=O)c1ccc(C(=O)Nc2ccc(Cl)c(-c3ccccn3)c2)c(Cl)c1 [Vismodegib] + CS(=O)(=O)CCNCc1ccc(-c2ccc3ncnc(Nc4ccc(OCc5cccc(F)c5)c(Cl)c4)c3c2)o1 [Lapatinib] (partner 2 µM)
Summary of the method: as §1

Ruxolitinib + Phenformin = compound: N#CC[C@H](C1CCCC1)n1cc(-c2ncnc3[nH]ccc23)cn1 [Ruxolitinib] + N=C(N)NC(=N)NCCc1ccccc1 [Phenformin] (partner 250 µM)
Summary of the method: as §1

Ruxolitinib + Olaparib = compound: N#CC[C@H](C1CCCC1)n1cc(-c2ncnc3[nH]ccc23)cn1 [Ruxolitinib] + O=C(c1cc(Cc2n[nH]c(=O)c3ccccc23)ccc1F)N1CCN(C(=O)C2CC2)CC1 [Olaparib] (partner 8 µM)
Summary of the method: as §1

Row | Cell Line | relative viability (VE-821 + Phenformin; first compound 0.08 µM) | relative viability (VE-821 + Phenformin; first compound 0.253 µM) | relative viability (VE-821 + Phenformin; first compound 0.8 µM) | relative viability (VE-821 + Phenformin; first compound 2.53 µM) | relative viability (VE-821 + Phenformin; first compound 8 µM) | relative viability (Vismodegib + Lapatinib; first compound 0.08 µM) | relative viability (Vismodegib + Lapatinib; first compound 0.253 µM) | relative viability (Vismodegib + Lapatinib; first compound 0.8 µM) | relative viability (Vismodegib + Lapatinib; first compound 2.53 µM) | relative viability (Vismodegib + Lapatinib; first compound 8 µM) | relative viability (Ruxolitinib + Phenformin; first compound 0.08 µM) | relative viability (Ruxolitinib + Phenformin; first compound 0.253 µM) | relative viability (Ruxolitinib + Phenformin; first compound 0.8 µM) | relative viability (Ruxolitinib + Phenformin; first compound 2.53 µM) | relative viability (Ruxolitinib + Phenformin; first compound 8 µM) | relative viability (Ruxolitinib + Olaparib; first compound 0.08 µM) | relative viability (Ruxolitinib + Olaparib; first compound 0.253 µM) | relative viability (Ruxolitinib + Olaparib; first compound 0.8 µM) | relative viability (Ruxolitinib + Olaparib; first compound 2.53 µM) | relative viability (Ruxolitinib + Olaparib; first compound 8 µM)
1 | NCI-H1355 | 0.469 | 0.442 | 0.459 | 0.526 | 0.369 | 0.93 | 0.923 | 0.844 | 0.951 | 0.957 | 0.418 | 0.418 | 0.46 | 0.394 | 0.416 | 0.745 | 0.749 | 0.798 | 0.655 | 0.616
2 | NCI-H1395 | 0.43 | 0.415 | 0.449 | 0.467 | 0.41 | 1.06 | 0.899 | 0.855 | 0.927 | 1.18 | 0.435 | 0.418 | 0.489 | 0.455 | 0.408 | 0.44 | 0.419 | 0.456 | 0.443 | 0.476
3 | NCI-H1437 | 0.318 | 0.319 | 0.329 | 0.306 | 0.274 | 0.741 | 0.791 | 0.783 | 0.816 | 0.762 | 0.341 | 0.287 | 0.29 | 0.275 | 0.271 | 0.669 | 0.622 | 0.624 | 0.549 | 0.463
4 | NCI-H1650 | 0.496 | 0.422 | 0.363 | 0.3 | 0.21 | 0.704 | 0.767 | 0.666 | 0.806 | 0.748 | – | 0.315 | 0.455 | 0.388 | 0.331 | 0.689 | 0.784 | 0.879 | 0.836 | 0.751
5 | NCI-H1651 | 0.349 | 0.305 | 0.361 | 0.32 | 0.283 | 0.869 | 0.867 | 0.852 | 0.83 | 0.89 | 0.313 | 0.275 | 0.351 | 0.3 | 0.354 | 0.192 | 0.179 | 0.189 | 0.198 | 0.211
6 | NCI-H1666 | 0.578 | 0.536 | 0.602 | 0.6 | 0.535 | 0.72 | 0.616 | 0.453 | 0.558 | 0.879 | 0.606 | 0.538 | 0.519 | 0.564 | 0.512 | 0.74 | 0.759 | 0.797 | 0.786 | 0.698
7 | NCI-H1734 | 0.392 | 0.386 | 0.377 | 0.402 | 0.271 | 1.04 | 1.02 | 0.96 | 0.957 | 1 | 0.382 | 0.342 | 0.472 | 0.36 | 0.432 | 0.605 | 0.554 | 0.64 | 0.56 | 0.583
8 | NCI-H1755 | 0.632 | 0.601 | 0.546 | 0.615 | 0.527 | 1 | 1 | 1.06 | 1.02 | 1.04 | 0.613 | 0.586 | 0.575 | 0.527 | 0.526 | 0.897 | 0.812 | 0.925 | 0.772 | 0.792
9 | NCI-H1792 | 0.332 | – | 0.281 | 0.342 | 0.258 | 0.851 | 0.97 | 0.872 | 0.79 | 0.878 | 0.253 | 0.241 | 0.261 | 0.146 | 0.128 | 0.303 | 0.44 | 0.377 | 0.384 | 0.236
10 | NCI-H1793 | 0.437 | 0.3 | 0.325 | 0.49 | 0.239 | – | 0.667 | 0.658 | 0.671 | 0.676 | 0.361 | 0.345 | 0.368 | 0.338 | 0.304 | 0.769 | 0.8 | 1.07 | 0.89 | 0.706
11 | NCI-H1915 | 0.391 | 0.359 | 0.39 | 0.385 | 0.347 | 0.936 | 0.975 | 0.995 | 0.901 | 0.978 | 0.375 | 0.41 | 0.384 | 0.358 | 0.343 | 0.249 | 0.255 | 0.265 | 0.208 | 0.236
12 | NCI-H1944 | 0.235 | 0.2 | 0.172 | 0.238 | 0.157 | 0.925 | 0.746 | 0.801 | 0.79 | 0.972 | 0.201 | 0.202 | 0.215 | 0.164 | 0.151 | 0.431 | 0.426 | 0.428 | 0.399 | 0.448
13 | NCI-H1975 | 0.397 | 0.394 | – | 0.418 | 0.36 | 0.848 | 0.819 | 0.966 | 0.803 | 0.946 | 0.43 | 0.394 | 0.423 | 0.384 | 0.269 | 0.854 | 0.786 | 0.716 | 0.675 | 0.421
14 | NCI-H1993 | 0.457 | 0.439 | 0.527 | 0.482 | 0.524 | 0.745 | 1.02 | 0.806 | 0.788 | 0.777 | 0.497 | 0.526 | 0.473 | 0.572 | 0.51 | 0.879 | 0.953 | 1.42 | 1.47 | 1.02
15 | NCI-H2009 | 0.507 | 0.471 | 0.498 | 0.461 | 0.36 | 0.901 | 0.891 | 0.892 | 0.899 | 0.788 | 0.414 | 0.443 | 0.535 | 0.423 | 0.297 | 0.701 | 0.712 | 0.684 | 0.575 | 0.482
16 | NCI-H2023 | 0.481 | 0.394 | 0.282 | 0.272 | 0.139 | 0.426 | 0.871 | 0.738 | 0.76 | 0.935 | 0.383 | 0.373 | 0.428 | 0.358 | 0.328 | 0.483 | 0.604 | 0.509 | 0.515 | 0.339
17 | NCI-H2085 | 0.762 | 0.674 | 0.558 | 0.869 | 0.481 | 0.764 | 0.809 | 0.71 | 0.751 | 0.81 | 0.758 | 0.774 | 0.831 | 0.627 | 0.642 | 0.781 | 0.804 | 0.755 | 0.64 | 0.588
18 | NCI-H2087 | 0.562 | 0.486 | 0.427 | 0.438 | 0.375 | 0.872 | 0.856 | 1.12 | 1.07 | 0.863 | 0.531 | 0.388 | 0.523 | 0.409 | 0.382 | 0.433 | – | 0.454 | 0.631 | 0.579
19 | NCI-H2126 | 0.565 | 0.494 | 0.51 | 0.514 | 0.409 | 0.725 | 0.746 | 0.701 | 0.616 | 0.729 | 0.518 | 0.474 | 0.568 | 0.528 | 0.522 | 0.923 | 0.933 | 0.958 | 0.879 | 0.811
20 | NCI-H2170 | 0.416 | 0.399 | 0.358 | 0.412 | 0.359 | 0.258 | 0.271 | 0.26 | 0.307 | 0.28 | 0.382 | 0.391 | 0.417 | 0.374 | 0.351 | 0.584 | 0.686 | 0.592 | 0.579 | 0.5
21 | NCI-H2228 | 0.356 | 0.294 | 0.284 | 0.457 | 0.194 | 1.16 | 1.19 | 1.03 | 1.05 | 1.02 | 0.323 | 0.299 | 0.311 | 0.264 | 0.273 | 0.58 | 0.847 | 0.576 | 0.614 | 0.592
22 | NCI-H2347 | 0.476 | 0.295 | 0.347 | 0.495 | 0.358 | 0.962 | 0.989 | 0.901 | 0.808 | 0.938 | 0.385 | 0.406 | 0.453 | 0.533 | 0.505 | 0.527 | 0.627 | 0.644 | 0.599 | 0.572
23 | NCI-H2405 | 0.37 | 0.373 | 0.36 | 0.453 | 0.432 | – | 1.09 | 0.937 | 0.913 | 1.11 | – | 0.36 | 0.404 | 0.308 | 0.312 | 0.931 | 0.838 | 0.882 | 0.633 | 0.573
24 | NCI-H3122 | 0.394 | 0.348 | 0.354 | 0.349 | 0.332 | 0.987 | 1.06 | 0.982 | 0.897 | 0.936 | – | 0.429 | 0.378 | 0.327 | 0.318 | 0.7 | 0.635 | 0.711 | 0.627 | 0.644
25 | PC-3 [JPC-3] | 0.455 | 0.504 | 0.448 | 0.469 | 0.451 | 0.486 | 0.467 | 0.394 | 0.447 | 0.475 | 0.428 | 0.477 | 0.477 | 0.443 | 0.481 | – | 1.07 | 1.13 | 1.03 | 0.922
26 | PC-14 | 0.648 | 0.528 | 0.675 | 0.574 | 0.449 | 0.273 | 0.338 | 0.29 | 0.337 | 0.337 | – | 0.436 | 0.518 | 0.566 | 0.604 | – | 0.302 | 0.233 | 0.353 | 0.298
27 | RERF-LC-KJ | 0.397 | 0.361 | 0.377 | 0.407 | 0.41 | 0.902 | 0.848 | 0.762 | 0.817 | 0.826 | 0.349 | 0.418 | 0.426 | 0.42 | 0.332 | 0.966 | 0.881 | 0.948 | 0.844 | 0.626
28 | SK-LU-1 | 0.675 | 0.528 | 0.497 | 0.383 | 0.216 | 0.769 | 0.887 | 0.991 | 0.776 | 0.884 | 0.551 | 0.529 | 0.637 | 0.433 | 0.422 | 0.428 | 0.456 | 0.572 | 0.381 | 0.359
29 | SK-MES-1 | 0.708 | 0.626 | 0.718 | 0.628 | 0.445 | 0.498 | 0.475 | 0.404 | 0.484 | 0.499 | 0.708 | 0.641 | 0.663 | 0.593 | 0.495 | 0.766 | 0.639 | 0.713 | 0.563 | 0.597
30 | SW 1573 | 0.405 | 0.293 | 0.358 | 0.456 | 0.162 | 0.974 | 1.08 | 1.14 | 0.959 | 1.18 | 0.419 | 0.324 | 0.417 | 0.308 | 0.369 | 0.518 | 0.586 | 0.473 | 0.416 | 0.352

— the supplement of paper PMC10307832
